# Values of other authors as cited in PMC5107951 (Scientific Reports, 2016).
# System: GABA-A receptor
# Conditions: cited from earlier work
row,Substance,binding to GABA-A receptor (in words)
1,α-cobratoxin,also binds
2,α-conotoxin ImI,low affinity
